The source of these data is paper PMC6459958, “NEP-TC a rRNA Methyltransferase Involved on Somatic Embryogenesis of Tamarillo (Solanum betaceum Cav.)” (Frontiers in Plant Science, 2019).

The target in the assay is NEP-TC (Solanum betaceum, UniProt I1W0V3). Briefly: coupled colorimetric SAM methyltransferase assay (SAH production, […] nm). It counts as biochemical. The following applies: methyl donor; co-substrate rRNA or total RNA from non-embryogenic calli.
Sequence of NEP-TC (I1W0V3 1-221): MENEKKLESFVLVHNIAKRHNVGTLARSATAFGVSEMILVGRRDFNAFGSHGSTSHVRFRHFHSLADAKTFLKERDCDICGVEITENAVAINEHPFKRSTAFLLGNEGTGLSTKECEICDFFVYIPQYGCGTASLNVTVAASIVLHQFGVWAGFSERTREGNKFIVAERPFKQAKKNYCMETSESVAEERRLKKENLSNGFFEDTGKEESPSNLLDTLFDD

With `C[S+](CC[C@H](N)C(=O)O)C[C@H]1O[C@@H](n2cnc3c(N)ncnc32)[C@H](O)[C@@H]1O` (stereo partly shown) [SAM], the “coupled colorimetric SAM methyltransferase assay (SAH production, 510 nm)” value is on record as “production of SAH in SAM-dependent methylation reactions”.
